{
  "source": "ChEMBL document CHEMBL3085639",
  "about": "“Novel camphane-based anti-tuberculosis agents with nanomolar activity” (2013)",
  "test_system": "Mycobacterium tuberculosis",
  "assay": "Antimycobacterial activity against rifampin/isoniazid-resistant Mycobacterium tuberculosis 43 assessed as growth inhibition after 45 days by Canetti proportional method",
  "format": "functional",
  "data": [
    {"smiles": "CC1(C)[C@@H]2CC[C@@]1(C)[C@H](O)[C@@H]2NC(=O)/C=C/c1ccccc1", "values": [
      {"measurement": "MIC", "value": 6.68, "unit": "µM"}
    ]},
    {"smiles": "CC1(C)[C@@H]2CC[C@@]1(C)[C@H](O)[C@@H]2NC(=O)CCc1ccccc1", "values": [
      {"measurement": "MIC", "value": 6.63, "unit": "µM"}
    ]},
    {"smiles": "CC(=O)Oc1ccccc1C(=O)N[C@@H]1[C@H]2CC[C@@](C)([C@@H]1O)C2(C)C", "values": [
      {"measurement": "MIC", "value": "> 15.1", "unit": "µM"}
    ]},
    {"smiles": "CC1(C)[C@@H]2CC[C@@]1(C)[C@H](O)[C@@H]2NC(=O)c1cccnc1", "values": [
      {"measurement": "MIC", "value": 18.2, "unit": "µM"}
    ]},
    {"smiles": "CC1(C)[C@@H]2CC[C@@]1(C)[C@H](O)[C@@H]2NC(=O)c1ccco1", "values": [
      {"measurement": "MIC", "value": 7.59, "unit": "µM"}
    ]},
    {"smiles": "CCNC(=O)N[C@@H]1[C@H]2CC[C@@](C)([C@@H]1O)C2(C)C", "values": [
      {"measurement": "MIC", "value": "> 20.8", "unit": "µM"}
    ]}
  ]
}
